In patent US6207669A, “Bicyclic heteroaromatic compounds as protein tyrosine kinase inhibitors” (Glaxo Wellcome Inc., priority 1996, dated 2001):
Structures can show the parent of a compound that is named as a salt. Where two headings read alike, the source gives them in different places.

What was measured:
[1] = target: T1, EGFr isolated from solubilised A431 cell membranes (Homo sapiens, UniProt P00533); experiment: Substrate phosphorylation assay, EGFr; type: biochemical; settings: 30 minutes, room temperature, ATP and peptide at Km
T1 construct: EGFr isolated from solubilised A431 cell membranes; endogenous in cells; host or cells: A431 cells (solubilised membranes)
Description: (§1) The substrate phosphorylation assays use baculovirus expressed, recombinant constructs of the intracellular domains of c-erbB-2 and c-erbB4 that are constitutively active and EGFr isolated from solubilised A431 cell membranes. The method measures the ability of the isolated enzymes to catalyse the transfer of the γ-phosphate from ATP onto tyrosine residues in a biotinylated synthetic peptide (Biotin-GluGluGluGluTyrPheGluLeuVal). The enzyme is incubated for 30 minutes, at room temperature, with 10 mM […], ATP and peptide at Km concentrations, and test compound (diluted from a 5 mM stock in DMSO, final DMSO concentration is 2%) in 40 mM HEPES buffer, pH 7.4. The reaction is stopped by the addition of EDTA (final concentration 0.15 mM) and a sample is transferred to a streptavidin-coated 96-well plate. The plate is washed and the level of phosphotyrosine on the peptide is determined using a Europium-labelled antiphosphotyrosine antibody and quantified with a time-resolved fluorescence technique. The results are shown in Table 1 as the IC50 values in nM.

[2] = target: T2, c-erbB4 (baculovirus expressed, recombinant intracellular domain) (Homo sapiens, UniProt Q15303); experiment: Substrate phosphorylation assay, c-erbB4; type: biochemical; settings: 30 minutes, room temperature, ATP and peptide at Km; read-out: Substrate Phosphorylation erbB-4 IC50
T2 construct: recombinant constructs of the intracellular domains of c-erbB-2 and c-erbB4 that are constitutively active; made in house
Description: as §1

[3] = target: T3, c-erbB-2 (baculovirus expressed, recombinant intracellular domain) (Homo sapiens, UniProt P04626); experiment: Substrate phosphorylation assay, c-erbB-2; type: biochemical; settings: 30 minutes, room temperature, ATP and peptide at Km
T3 construct: recombinant constructs of the intracellular domains of c-erbB-2 and c-erbB4 that are constitutively active; made in house
Description: The substrate phosphorylation assays use baculovirus expressed, recombinant constructs of the intracellular domains of c-erbB-2 and c-erbB4 that are constitutively active and EGFr isolated from solubilised A431 cell membranes. […] The reaction is stopped by the addition of EDTA (final concentration 0.15 mM) and a sample is transferred to a streptavidin-coated 96-well plate. The plate is washed and the level of phosphotyrosine on the peptide is determined using a Europium-labelled antiphosphotyrosine antibody and quantified with a time-resolved fluorescence technique. The results are shown in Table 1 as the IC50 values in nM.

[4] = test system: HB4a cell line transfected with ras; experiment: Cell proliferation assay, HB4a ras; type: cell-based; settings: Homo sapiens, 96 h, 4 days, methylene blue staining, general toxicity comparison
[5] = test system: HB4a cell line transformed by over-expression of c-erbB-2; experiment: Cell proliferation assay, HB4a erbB-2; type: cell-based; settings: Homo sapiens, 96 h, 4 days, methylene blue staining
Description: (§2) The cell proliferation assay uses an immortalised human breast epithelial cell line (HB4a) which has been transformed by over-expression of c-erbB-2. Growth of these cells in low serum is dependent upon the c-erbB-2 tyrosine kinase activity. […] Cells are plated at 3000/well in 96-well plates in […] medium and allowed to attach overnight. test compound is added in 0.1 ml medium, with a final concentration of 0.5% DMSO, and the plates incubated for 4 days at 37° C. The cells are then examined microscopically for evidence of morphological detransformation and cell mass is estimated by staining with methylene blue and measuring the absorbance at 620 nm. […] Activity against a range of naturally occurring EGFr or c-erbB-2 over-expressing human tumour cell lines (BT474-breast, HN5-head and neck, N87 gastric and Calu3-lung) is assessed with selected compounds by the same methodology.

[6] = test system: N87 gastric tumour cell line; experiment: Cell proliferation assay, N87; type: cell-based; settings: Homo sapiens, 96 h; 4 days, methylene blue staining
Description: as §2

[7] = test system: BT474-breast tumour cell line; experiment: Cell proliferation assay, BT474; type: cell-based; settings: Homo sapiens, BT-474, 96 h; 4 days, methylene blue staining
Description: as §2

[8] = test system: Calu3-lung tumour cell line; experiment: Cell proliferation assay, Calu3; type: cell-based; settings: Homo sapiens, Calu-3, 96 h; 4 days, methylene blue staining
Description: as §2

[9] = test system: HN5-head and neck tumour cell line; experiment: Cell proliferation assay, HN5; type: cell-based; settings: Homo sapiens, 96 h, read-out: Cell Proliferation HN5 IC50
Description: as §2

[10] = 4 days, methylene blue staining

T1 sequence (P00533 25-1210): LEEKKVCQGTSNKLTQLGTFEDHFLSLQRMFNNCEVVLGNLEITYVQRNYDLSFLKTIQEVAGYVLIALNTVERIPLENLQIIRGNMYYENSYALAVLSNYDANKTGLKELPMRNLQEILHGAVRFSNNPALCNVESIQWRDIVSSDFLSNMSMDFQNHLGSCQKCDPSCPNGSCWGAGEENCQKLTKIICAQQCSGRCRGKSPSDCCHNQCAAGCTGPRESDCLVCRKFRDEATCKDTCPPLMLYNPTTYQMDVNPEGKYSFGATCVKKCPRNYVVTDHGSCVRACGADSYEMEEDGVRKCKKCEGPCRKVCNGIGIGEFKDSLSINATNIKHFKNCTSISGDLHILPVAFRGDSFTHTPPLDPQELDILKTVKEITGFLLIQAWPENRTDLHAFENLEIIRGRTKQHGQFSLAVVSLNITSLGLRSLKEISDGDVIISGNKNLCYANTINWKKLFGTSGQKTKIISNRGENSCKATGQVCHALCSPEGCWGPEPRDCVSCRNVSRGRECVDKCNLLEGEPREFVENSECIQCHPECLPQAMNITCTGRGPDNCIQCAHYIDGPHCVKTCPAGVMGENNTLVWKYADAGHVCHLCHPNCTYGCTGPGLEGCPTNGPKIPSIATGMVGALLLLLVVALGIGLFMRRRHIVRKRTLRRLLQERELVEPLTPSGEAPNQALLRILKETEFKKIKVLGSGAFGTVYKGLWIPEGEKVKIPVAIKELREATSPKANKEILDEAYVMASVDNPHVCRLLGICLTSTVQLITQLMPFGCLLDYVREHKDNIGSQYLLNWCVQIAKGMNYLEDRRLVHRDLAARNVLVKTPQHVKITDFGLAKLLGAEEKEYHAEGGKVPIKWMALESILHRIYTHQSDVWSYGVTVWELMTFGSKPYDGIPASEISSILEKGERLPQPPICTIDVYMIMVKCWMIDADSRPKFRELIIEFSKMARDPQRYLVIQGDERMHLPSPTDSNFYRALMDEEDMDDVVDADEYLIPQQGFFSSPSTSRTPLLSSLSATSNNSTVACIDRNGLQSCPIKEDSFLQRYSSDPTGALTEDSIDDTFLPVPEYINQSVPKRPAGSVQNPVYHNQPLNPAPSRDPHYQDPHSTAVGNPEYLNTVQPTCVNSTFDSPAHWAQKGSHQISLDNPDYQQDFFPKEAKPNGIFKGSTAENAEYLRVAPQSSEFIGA
T2 sequence (Q15303 676-1308 limits assumed): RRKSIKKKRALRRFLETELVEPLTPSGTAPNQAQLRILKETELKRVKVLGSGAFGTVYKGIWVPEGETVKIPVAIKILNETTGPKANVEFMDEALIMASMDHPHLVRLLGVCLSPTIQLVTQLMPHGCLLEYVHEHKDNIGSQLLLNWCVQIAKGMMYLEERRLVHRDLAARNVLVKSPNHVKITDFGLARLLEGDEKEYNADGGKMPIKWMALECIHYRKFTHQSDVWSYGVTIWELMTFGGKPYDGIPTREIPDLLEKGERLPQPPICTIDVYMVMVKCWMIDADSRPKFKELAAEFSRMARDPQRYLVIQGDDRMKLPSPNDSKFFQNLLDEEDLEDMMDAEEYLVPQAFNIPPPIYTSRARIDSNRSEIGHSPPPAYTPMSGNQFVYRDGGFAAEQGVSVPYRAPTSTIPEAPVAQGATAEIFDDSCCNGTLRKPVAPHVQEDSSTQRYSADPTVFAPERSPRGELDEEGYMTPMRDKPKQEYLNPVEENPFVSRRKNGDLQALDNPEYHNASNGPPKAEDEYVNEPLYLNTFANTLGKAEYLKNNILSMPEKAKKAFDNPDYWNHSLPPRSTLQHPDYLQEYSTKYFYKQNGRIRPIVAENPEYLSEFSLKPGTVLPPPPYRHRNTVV
T3 sequence (P04626 676-1255 limits assumed): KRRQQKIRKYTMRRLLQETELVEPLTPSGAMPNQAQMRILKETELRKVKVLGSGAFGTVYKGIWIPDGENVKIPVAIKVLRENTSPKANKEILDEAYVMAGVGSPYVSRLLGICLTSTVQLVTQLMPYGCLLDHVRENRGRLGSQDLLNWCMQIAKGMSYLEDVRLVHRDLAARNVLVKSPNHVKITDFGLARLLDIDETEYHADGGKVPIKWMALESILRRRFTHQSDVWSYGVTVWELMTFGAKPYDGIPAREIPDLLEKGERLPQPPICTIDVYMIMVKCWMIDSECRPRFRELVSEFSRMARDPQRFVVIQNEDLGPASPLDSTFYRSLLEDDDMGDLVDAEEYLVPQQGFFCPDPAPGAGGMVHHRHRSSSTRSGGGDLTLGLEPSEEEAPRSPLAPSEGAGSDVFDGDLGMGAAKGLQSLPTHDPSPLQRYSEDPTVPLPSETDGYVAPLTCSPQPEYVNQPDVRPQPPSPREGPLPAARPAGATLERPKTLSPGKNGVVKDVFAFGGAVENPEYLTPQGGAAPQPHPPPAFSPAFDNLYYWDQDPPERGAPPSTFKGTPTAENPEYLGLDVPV

SMILES	IC50 [1] [nM]	IC50 [2] [nM]	IC50 [3] [nM]	IC50 [6] [nM]	IC50 [9, 10] [nM]	IC50 [4] [nM]	IC50 [5] [nM]	IC50 [7] [nM]	IC50 [8] [nM]	IC50 [9] [nM]
CS(=O)(=O)CCNCc1ccc(-c2cc3c(Nc4ccc(OCc5ccccc5)cc4)ncnc3cn2)o1 [Example 3, 4-Benzyloxy-phenyl)-(6-(5-((2-methanesulphonyl-ethylamino)methyl)-furan-2-yl-pyrido[3,4-d]pyrimidin-4-yl)-amine hydrochloride]	140	190	10			31000	500			
c1ccc(COc2ccc(Nc3ncnc4cnc(-c5ccc(CNc6cccnc6)o5)cc34)cc2)cc1 [Example 5, (4-Benzyloxy-phenyl)-(6-(5-(pyridin-3-ylaminomethyl)-furan-2-yl)-pyrido[3,4-d]pyrimidin-4-yl)-amine]	260	1600	110			8200	5600			
CN(CC(N)=O)Cc1ccc(-c2cc3c(Nc4ccc(OCc5ccccc5)cc4)ncnc3cn2)o1 [Example 8, 2-((5-(4-(4-Benzyloxy-phenylamino)-pyrido[3,4-d]pyrimidin-6-yl)-furan-2-ylmethyl)-methylamino)-acetamide]	720	160	11	60		41000	100	380	340	350
CC(=O)NCCNCc1ccc(-c2cc3c(Nc4ccc(OCc5ccccc5)cc4)ncnc3cn2)o1 [Example 9]	95	1000	7			3900	730			
C[S+]([O-])CCNCc1ccc(-c2cc3c(Nc4ccc(OCc5ccccc5)cc4)ncnc3cn2)o1 (stereo not drawn) [Example 10, (4-Benzyloxy-phenyl)-(6-(5-((2-methanesulphinyl-ethylamino)-methyl)-furan-2-yl)-pyrido[3,4-d]pyrimidin-4-yl)-amine]	140		22			8700	250			
OCc1ccc(-c2cc3c(Nc4ccc(OCc5ccccc5)cc4)ncnc3cn2)o1 [Example 12, (5-4-(4-(4-Benzyloxy-phenylamino)-pyrido[3,4-d]pyrimidin-6-yl)-furan-2-yl)-methanol hydrochloride]	31	490	4			7600	440			460
NC(=O)[C@H]1CCCN1Cc1ccc(-c2cc3c(Nc4ccc(OCc5ccccc5)cc4)ncnc3cn2)o1 [Example 13, (2R)-1-{5-[4-(4-Benzyloxy-phenylamino)-pyrido[3,4-d]pyrimidin-6-yl]-furan-2-ylmethyl}pyrrolidine-2-carboxalic acid amide hydrochloride]		480	14			> 50000	170			350
CS(=O)(=O)CCCNCc1ccc(-c2cc3c(Nc4ccc(OCc5ccccc5)cc4)ncnc3cn2)o1 [Example 14]		3900	420							
CN(CCS(C)(=O)=O)Cc1ccc(-c2cc3c(Nc4ccc(OCc5ccccc5)cc4)ncnc3cn2)o1 [Example 15]		1500	30			8500	300			
CS(=O)(=O)NCCNCc1ccc(-c2cc3c(Nc4ccc(OCc5ccccc5)cc4)ncnc3cn2)o1 [Example 17, N-(2-((5-(4-(4-Benzyloxy-phenylamino)-pyrido[3,4-d]pyrimidin-6-yl)-furan-2-ylmethyl)-amino)-ethyl)-methanesulphonamide hydrochloride]		760	29	150	720	3500	250	100	3700	

The next lines start with results.

IC50 [1] [nM]	IC50 [2] [nM]	IC50 [3] [nM]	IC50 [6] [nM]	IC50 [9, 10] [nM]	SMILES	IC50 [4] [nM]	IC50 [5] [nM]	IC50 [7] [nM]	IC50 [8] [nM]	IC50 [9] [nM]
170	1400	70			c1ccc(COc2ccc(Nc3ncnc4cnc(-c5ccc(CN6CCCCC6)o5)cc34)cc2)cc1 [Example 1, (4-Benzyloxy-phenyl)-(6-(5-piperidin-1-ylmethyl)-furan-2-yl)-pyrido3,4-d]pyrimidin-4-yl)-amine hydrochloride]					
170	760	60			CN1CCN(Cc2ccc(-c3cc4c(Nc5ccc(OCc6ccccc6)cc5)ncnc4cn3)o2)CC1 [Example 2, (4-Benzyloxy-phenyl)-(6-(5-(4-methyl-piperazin-1-ylmethy)-furan-2-yl)pyrido[3,4-d]pyrimidin-4-yl)-amine]	2100	430			
130	530	13			COC(=O)CNCc1ccc(-c2cc3c(Nc4ccc(OCc5ccccc5)cc4)ncnc3cn2)o1 [Example 4, ((5-4-(4-Benzloxy-phenylamino)-pyrido[3,4-d]pyrimidin-6-yl)-furan-2-ylmethyl)-amino)-acetic acid methyl ester hydrochloride]	16000	29000			
380	2400	98			CN(C)Cc1ccc(-c2cc3c(Nc4ccc(OCc5ccccc5)cc4)ncnc3cn2)o1 [Example 6, (4-Benzyloxy-phenyl)6-(5-(dimethyyaminomethyl)-furan-2-yl)pyrido[3,4-d]pyrimidin4-yl)-amine hydrochloride]	2200	1500			
79	84	44			NC(=O)[C@@H]1CCCN1Cc1ccc(-c2cc3c(Nc4ccc(OCc5ccccc5)cc4)ncnc3cn2)o1 [Example 7, (2S)-1-(5-(4-(4-Benzyloxy-phenylamino)-pyrido[3,4-d]pyrimidine-6-yl)-furan-2-ylmethyl)-pyrrolidine-2-carboxylic acid amide hydrochloride]	15000	410			
88	450	19			O=C(O)CNCc1ccc(-c2cc3c(Nc4ccc(OCc5ccccc5)cc4)ncnc3cn2)o1 [Example 11, ((5-(4-(4-Benzyloxy-phenylamino)-pyrido[3,4-d]pyrimidine-6yl)-furan-2-ylmethyl)-amino)-acetic acid hydrochloride]	5900	50000			
	2800	280	670	3300	CN(C)C(=O)[C@@H]1CCCN1Cc1ccc(-c2cc3c(Nc4ccc(OCc5ccccc5)cc4)ncnc3cn2)o1 [Example 16, (2S)-1-{-5-[4-(4-Benzyloxy-phenylamino)-pyrido[3,4-d]pyrimidin-6-yl]-furan-2-ylmethyl}-pyrrolidine-2-carboxylic acid dimethylamide]	7900	2100			
